Key:
rabbit [1] = conditions: Prenatal developmental toxicity study; dutch; Inhalation; Whole-Body; dose end: 18 GD; group: developmental; developmental / developmental malformation / bone / incomplete ossification + developmental / developmental malformation / bone / …
rabbit [2] = conditions: Prenatal developmental toxicity study, new zealand white, Inhalation, Whole-Body, dose end: 18 GD
rabbit [3] = conditions: Subchronic inhalation toxicity, new zealand white, Whole-Body, dose end: 13 week, group: systemic
rat [4] = conditions: Prenatal developmental toxicity study, wistar, Inhalation, Whole-Body, dose end: 19 GD
rat [5] = conditions: Prenatal developmental toxicity study, wistar, Inhalation, Whole-Body, dose end: 19 GD; remark: listed apart in the source
rat [6] = conditions: Subchronic oral toxicity in rodents, fischer, Water, dose end: 13 week
mouse [7] = conditions: Subchronic oral toxicity in rodents, b6c3f1, Water, dose end: 13 week
rat [8] = conditions: Carcinogenicity, fischer, Oral, Gavage/Intubation, dose end: 2 year, group: systemic
rat [9] = conditions: Subchronic inhalation toxicity, sprague dawley, Whole-Body, dose end: 13 week, group: systemic
mouse [10] = conditions: Carcinogenicity, b6c3f1, Oral, Gavage/Intubation, dose end: 2 year, group: systemic
rat [11] = conditions: Prenatal developmental toxicity study, wistar, Inhalation, Whole-Body, dose end: 15 GD
[12] = group: developmental, developmental / developmental malformation / bone / supernumerary + developmental / developmental malformation / heart / [other] + …
[13] = group: maternal, reproductive / reproductive performance / resorptions / resorptions + systemic / in life observation / body weight / body weight gain + …
[14] = group: maternal, reproductive / reproductive performance / resorptions / resorptions + systemic / in life observation / food consumption / food consumption…
[15] = systemic / clinical chemistry / cholesterol / cholesterol
[16] = systemic / clinical chemistry / cholesterol / cholesterol + systemic / hematology / erythrocyte (rbc) count differential / erythrocyte (rbc…
[17] = group: developmental, developmental / developmental malformation / bone / incomplete ossification + developmental / developmental malformation / bone / knobby + …
[18] = group: maternal, reproductive / reproductive performance / resorptions / resorptions + systemic / in life observation / body weight / body weight + systemic…
[19] = group: maternal, systemic / organ weight / spleen / relative to body weight
[20] = group: maternal, reproductive / reproductive performance / resorptions / resorptions
[21] = group: maternal, reproductive / reproductive performance / estrous cycle / abnormal + reproductive / reproductive performance / estrous cycle / length
[22] = group: systemic, systemic / clinical chemistry / alkaline phosphatase (alp/alk) / alkaline phosphatase (alp/alk)
[23] = group: systemic, systemic / in life observation / body weight / body weight + systemic / in life observation / body weight / body weight gain + systemic / …
[24] = group: maternal, reproductive / reproductive performance / estrous cycle / length
[25] = group: systemic, systemic / in life observation / body weight / body weight gain + systemic / organ weight / testes / absolute + systemic / pathology gross…
[26] = systemic / in life observation / body weight / body weight
[27] = systemic / in life observation / body weight / body weight + systemic / pathology gross / adrenal gland / enlarged
[28] = systemic / organ weight / spleen / absolute + systemic / organ weight / spleen / relative to body weight
[29] = systemic / organ weight / spleen / absolute + systemic / organ weight / spleen / relative to body weight + systemic / clinical chemistry / …
[30] = systemic / in life observation / mortality / mortality + systemic / pathology gross / stomach / ulcer + systemic / pathology gross / testes…
[31] = group: developmental, systemic / in life observation / body weight / litter weight
[32] = group: developmental, systemic / in life observation / body weight / litter weight + developmental / developmental malformation / bone / incomplete ossification…
[33] = group: maternal, reproductive / reproductive performance / preimplantation loss / preimplantation loss + reproductive / offspring survival early / live …

`CCOCCO` [2-Ethoxyethanol] was tested, and the LEL (rabbit [1]) was 175 ppm, the LOAEL (rabbit [1]) was greater than 175 ppm and the NEL (rabbit [1]) was 50 ppm. It also gave an NOAEL (rabbit [1]) of no less than 175 ppm, an LEL (rabbit [2]; [12]) of 160 ppm and an LOAEL (rabbit [2]; [12]) greater than 617 ppm. It also gave an NEL (rabbit [2]; [12]) of less than 160 ppm, an NOAEL (rabbit [2]; [12]) of no less than 617 ppm and an LOAEL (rabbit [2]; [13]) greater than 617 ppm. It also gave an NOAEL (rabbit [2]; [13]) of no less than 617 ppm, an LEL (rabbit [2]; [14]) of 160 ppm and an NEL (rabbit [2]; [14]) of less than 160 ppm. For the same molecule, the LEL (rabbit [3]; [15]) was 25 ppm, the NEL (rabbit [3]; [15]) was less than 25 ppm and the LOAEL (rabbit [3]; [16]) was greater than 400 ppm. The NOAEL (rabbit [3]; [16]) was no less than 400 ppm, the LEL (rat [4]; [17]) was 202 ppm and the LOAEL (rat [4]; [17]) was greater than 767 ppm. The NEL (rat [4]; [17]) was less than 202 ppm, the NOAEL (rat [4]; [17]) was no less than 767 ppm and the LOAEL (rat [4]; [18]) was greater than 767 ppm. For the same molecule, the NOAEL (rat [4]; [18]) was no less than 767 ppm, the LEL (rat [4]; [19]) was 202 ppm and the NEL (rat [4]; [19]) was less than 202 ppm. The LEL (rat [5]; [17]) was 150 ppm, the LOAEL (rat [5]; [17]) was greater than 649 ppm and the NEL (rat [5]; [17]) was less than 150 ppm. For the same molecule, the NOAEL (rat [5]; [17]) was no less than 649 ppm, the LEL (rat [5]; [20]) was 150 ppm and the NEL (rat [5]; [20]) was less than 150 ppm. It also gave an LOAEL (rat [5]; [18]) greater than 649 ppm, an NOAEL (rat [5]; [18]) of no less than 649 ppm and an LEL (rat [6]; [21]) of 804 mg/kg/day. The LOAEL (rat [6]; [21]) was greater than 2060 mg/kg/day, the NEL (rat [6]; [21]) was 466 mg/kg/day and the NOAEL (rat [6]; [21]) was no less than 2060 mg/kg/day. For the same molecule, the LEL (rat [6]; [22]) was 109 mg/kg/day, the NEL (rat [6]; [22]) was less than 109 mg/kg/day and the LOAEL (rat [6]; [23]) was 792 mg/kg/day. For the same molecule, the NOAEL (rat [6]; [23]) was 400 mg/kg/day, the LEL (mouse [7]; [24]) was 722 mg/kg/day and the LOAEL (mouse [7]; [24]) was greater than 11200 mg/kg/day. It also gave an NEL (mouse [7]; [24]) of less than 722 mg/kg/day, an NOAEL (mouse [7]; [24]) of no less than 11200 mg/kg/day and an LOAEL (mouse [7]; [25]) of 5120 mg/kg/day. For the same molecule, the NOAEL (mouse [7]; [25]) was 2000 mg/kg/day, the LEL (mouse [7]; group: systemic, systemic / pathology microscopic / adrenal gland / hypertrophy) was 2720 mg/kg/day and the NEL (mouse [7]; group: systemic, systemic / pathology microscopic / adrenal gland / hypertrophy + systemic / in life observation / body weight / body weight gain + systemic…) was 1300 mg/kg/day. The LOAEL (rat [8]; [26]) was 500 mg/kg/day, the NOAEL (rat [8]; [26]) was less than 500 mg/kg/day and the LEL (rat [8]; [27]) was 500 mg/kg/day. For the same molecule, the NEL (rat [8]; [27]) was less than 500 mg/kg/day, the LEL (rat [9]; [28]) was 25 ppm and the NEL (rat [9]; [28]) was less than 25 ppm. For the same molecule, the LOAEL (rat [9]; [29]) was greater than 400 ppm, the NOAEL (rat [9]; [29]) was no less than 400 ppm and the LOAEL (mouse [10]; [30]) was greater than 2000 mg/kg/day. For the same molecule, the NEL (mouse [10]; [30]) was 500 mg/kg/day, the NOAEL (mouse [10]; [30]) was no less than 2000 mg/kg/day and the LEL (mouse [10]; systemic / pathology gross / testes / reduced size) was 1000 mg/kg/day. The LEL (rat [11]; [31]) was 10 ppm, the NEL (rat [11]; [31]) was less than 10 ppm and the LOAEL (rat [11]; [32]) was greater than 250 ppm. The NOAEL (rat [11]; [32]) was no less than 250 ppm, the LEL (rat [11]; [33]) was 10 ppm and the LOAEL (rat [11]; [33]) was greater than 250 ppm. For the same molecule, the NEL (rat [11]; [33]) was less than 10 ppm and the NOAEL (rat [11]; [33]) was no less than 250 ppm.

Reference: EPA's ToxRefDB 2
